This note sets out measurements from ChEMBL document CHEMBL1201862, “PubChem BioAssay data set” (2004).

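All cell lines were grown in 96-well plates and treated with compound for 48 hours. GI50 is the concentration that inhibits growth by half.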 Calls of active or inactive are those of the source. Rule as the data show it: active = GI50 up to about 1.1 µM and inactive = higher.

Test systems include SW-620; SK-MEL-2; A549; UO-31; OVCAR-4; SK-MEL-28; K562; MDA-MB-231; SN12C; SNB-19; HCT-116; Malme-3M; HCC 2998; SF-295; SR; BT-549; HT-29; IGROV-1; PC-3; RPMI-8226.
What all share (test): inhibition of tumour cell growth, NCI panel, 48 h

`Cc1cc(O)c(C(C)C)cc1NC(=O)Nc1cccc2ccccc12`: the GI50 was 27.9 µM (inactive) with SW-620; 15.3 µM (inactive) in the assay with SK-MEL-2; 17.5 µM (inactive) in the assay with A549; 17.1 µM (inactive) with UO-31; 6.43 µM (inactive) in the assay with OVCAR-4; 23.2 µM (inactive) with SK-MEL-28. In addition, the GI50 with K562 was 34.6 µM (inactive); with MDA-MB-231, 17.7 µM (inactive); in the assay with SN12C it was 16.5 µM (inactive); in the assay with SNB-19, 11.8 µM (inactive); with HCT-116 it was 15.6 µM (inactive); in the assay with Malme-3M, 19.5 µM (inactive). Also, the GI50 in the assay with HCC 2998 is 18.8 µM (inactive); in the assay with SF-295, 13.8 µM (inactive); in the assay on SR it was 26.6 µM (inactive); in the assay on BT-549 it was 17.2 µM (inactive); in the assay with HT-29, 17.5 µM (inactive); in the assay with IGROV-1, 14.3 µM (inactive). Moreover, the GI50 in the assay on PC-3 is 13.7 µM (inactive).
Consider `NCC1CCCCC1.O=C(O)NCC1CCCCC1`, for which the GI50 was 17.9 µM (inactive) in the assay on SW-620; 14.1 µM (inactive) in the assay on SK-MEL-2; 30.1 µM (inactive) in the assay on A549; 33.6 µM (inactive) in the assay on UO-31; 35.6 µM (inactive) in the assay with OVCAR-4; 38 µM (inactive) in the assay with SK-MEL-28. Further, the GI50 with K562 was 6.28 µM (inactive); in the assay on MDA-MB-231, 25.8 µM (inactive); with SN12C, 12.5 µM (inactive); with SNB-19 it was 47.3 µM (inactive); with HCT-116, 27.6 µM (inactive); with Malme-3M, 2.29 µM (inactive). Further, the GI50 in the assay on SF-295 is 19.1 µM (inactive); with RPMI-8226, 1.36 µM (inactive); with SR it was 23.4 µM (inactive); with BT-549 it was 26.5 µM (inactive); in the assay with HT-29 it was 19.3 µM (inactive); with IGROV-1 it was 9.12 µM (inactive). Besides, the GI50 in the assay on PC-3 is 17.7 µM (inactive).
As to `Cc1cc(Cl)ccc1OCC(=O)Nc1nc(N)nc(N)n1`, the GI50 in the assay with SW-620 was > 100 µM (inactive); in the assay with SK-MEL-2, > 100 µM (inactive); in the assay with A549, > 100 µM (inactive); with UO-31 it was 40.7 µM (inactive); in the assay with OVCAR-4 it was > 100 µM (inactive); in the assay on SK-MEL-28 it was > 100 µM (inactive). Moreover, the GI50 in the assay on K562, in the assay with MDA-MB-231, in the assay with SN12C, in the assay with SNB-19, in the assay on HCT-116 and in the assay on Malme-3M was > 100 µM (inactive) throughout. For the same molecule, the GI50 with SF-295, in the assay with RPMI-8226, in the assay on SR, in the assay on BT-549, with HT-29 and in the assay with IGROV-1 was > 100 µM (inactive) each time. The GI50 in the assay on PC-3 was > 100 µM (inactive).
Consider `O=C(Nc1ccc2nc(-c3ccccc3)cn2c1)Oc1ccccc1`, for which the GI50 with SW-620 is 48.6 µM (inactive); in the assay on SK-MEL-2, 46.7 µM (inactive); in the assay on A549, 55.5 µM (inactive); in the assay with UO-31, > 100 µM (inactive); in the assay with OVCAR-4, 78.3 µM (inactive); with SK-MEL-28 it was > 100 µM (inactive). Further, the GI50 in the assay on K562 was 34.6 µM (inactive); in the assay on MDA-MB-231, > 100 µM (inactive); in the assay on SN12C, 66.8 µM (inactive); with SNB-19 it was 73.6 µM (inactive); in the assay with HCT-116, 45.9 µM (inactive); in the assay with Malme-3M it was 98.2 µM (inactive). For the same molecule, the GI50 in the assay on HCC 2998 was 25.2 µM (inactive); in the assay with SF-295, 57.9 µM (inactive); in the assay on SR, 19 µM (inactive); in the assay on BT-549 it was > 100 µM (inactive); in the assay with HT-29 it was 43.1 µM (inactive); with IGROV-1, 57.3 µM (inactive). The GI50 in the assay on PC-3 is > 100 µM (inactive).
In the case of `COc1cccc2c1C(=O)c1ccc3cc(CO)cc(O)c3c1C2=O`, the GI50 in the assay with SW-620 is 0.19 µM (active); in the assay on SK-MEL-2 it was 0.798 µM (active); with A549 it was 0.624 µM (active); in the assay with UO-31 it was 0.982 µM (active); in the assay with OVCAR-4, 0.652 µM (active); in the assay on SK-MEL-28, 1.86 µM (inactive). The GI50 is 1.41 µM (inactive) in the assay with K562; 0.594 µM (active) with MDA-MB-231; 0.748 µM (active) in the assay on SN12C; 1.79 µM (inactive) with SNB-19; 0.252 µM (active) in the assay on HCT-116; 0.046 µM (active) in the assay on Malme-3M. For the same molecule, the GI50 in the assay on SF-295 was 3.03 µM (inactive); with RPMI-8226, 0.74 µM (active); in the assay on SR it was 0.267 µM (active); with BT-549 it was 1.58 µM (inactive); in the assay with HT-29 it was 0.813 µM (active); in the assay on IGROV-1, 1.38 µM (inactive). Moreover, the GI50 in the assay on PC-3 was 0.215 µM (active).
For the molecule `COc1cc2c(/C=C3/C(=O)Nc4ccc(Cl)cc43)c(Cl)n(Cc3ccccc3)c2cc1C`, the GI50 in the assay with SW-620 is 6.73 µM (inactive); with SK-MEL-2 it was 6.21 µM (inactive); with A549, 3.27 µM (inactive); in the assay on UO-31, 2.51 µM (inactive); in the assay on OVCAR-4 it was 1.95 µM (inactive); in the assay on SK-MEL-28, 2.39 µM (inactive). In addition, the GI50 is 3.14 µM (inactive) in the assay on K562; 2.48 µM (inactive) in the assay on MDA-MB-231; 2.59 µM (inactive) in the assay with SN12C; 3.1 µM (inactive) with SNB-19; 3.81 µM (inactive) in the assay on HCT-116; 2.22 µM (inactive) in the assay with Malme-3M. For the same molecule, the GI50 with SF-295 was 2.81 µM (inactive); in the assay with RPMI-8226, 2.51 µM (inactive); in the assay on SR, 2.72 µM (inactive); in the assay on BT-549, 7.85 µM (inactive); in the assay on HT-29, 8.26 µM (inactive); in the assay on IGROV-1 it was 3.29 µM (inactive). Further, in the assay on PC-3, the GI50 was 5.89 µM (inactive).
In the case of `COC(=O)c1ccc(/C=C2\Oc3ccccc3C2=O)cc1`, the GI50 was > 100 µM (inactive) in the assay on SW-620; > 100 µM (inactive) with A549; > 100 µM (inactive) with UO-31; > 100 µM (inactive) with OVCAR-4; > 100 µM (inactive) with SK-MEL-28; > 10 µM (inactive) in the assay on K562. For the same molecule, the GI50 in the assay with MDA-MB-231, in the assay on SN12C, in the assay on SNB-19, in the assay on HCT-116, in the assay with HCC 2998 and with SF-295 was > 100 µM (inactive) in each case. Also, the GI50 with RPMI-8226, with SR, in the assay with BT-549, in the assay with HT-29, in the assay with IGROV-1 and in the assay with PC-3 was > 100 µM (inactive) each time.
For the molecule `C=CCN1CC2CN=NC2(C#N)C1` (configuration not stated), the GI50 in the assay with SW-620, with SK-MEL-2, with A549, with UO-31, with OVCAR-4 and in the assay on SK-MEL-28 was > 100 µM (inactive) each time. For the same molecule, the GI50 with K562, in the assay on MDA-MB-231, with SN12C, with SNB-19, in the assay with HCT-116 and in the assay with Malme-3M was > 100 µM (inactive) throughout. For the same molecule, the GI50 in the assay on HCC 2998, with SF-295, in the assay with SR, in the assay on BT-549, in the assay with HT-29 and in the assay with IGROV-1 was > 100 µM (inactive) throughout. Besides, the GI50 in the assay on PC-3 was > 100 µM (inactive).
Turning to `CCCCCCCCCCCCCCCCCC(=O)Nc1ccn(C2CCC(COP(=O)(O)O)O2)c(=O)n1` (configuration not stated), the GI50 in the assay with SW-620, in the assay on SK-MEL-2, in the assay on A549, in the assay on UO-31, with OVCAR-4 and in the assay with SK-MEL-28 was > 100 µM (inactive) throughout. Besides, the GI50 with K562, in the assay on MDA-MB-231, in the assay on SN12C, with SNB-19, in the assay with HCT-116 and in the assay on HCC 2998 was > 100 µM (inactive) throughout. Besides, the GI50 with SF-295, in the assay on RPMI-8226, with SR, with BT-549, with HT-29 and in the assay on IGROV-1 was > 100 µM (inactive) throughout. In addition, in the assay with PC-3, the GI50 was > 100 µM (inactive).
Consider `c1cc(-c2cnc(-c3ccc4c(c3)CCCO4)o2)ccn1`, for which the GI50 in the assay on SK-MEL-2 is 11.9 µM (inactive); in the assay with A549, 16.2 µM (inactive); in the assay on UO-31 it was 12.3 µM (inactive); in the assay on OVCAR-4, 14.1 µM (inactive); in the assay with SK-MEL-28, 18.1 µM (inactive); in the assay with K562, 5.05 µM (inactive). The GI50 in the assay on MDA-MB-231 was 16.2 µM (inactive); with SN12C, 18.5 µM (inactive); in the assay on SNB-19 it was 11.9 µM (inactive); with HCT-116, 16.7 µM (inactive); in the assay with Malme-3M, 16.7 µM (inactive); in the assay on SF-295, 20 µM (inactive). Also, the GI50 in the assay with RPMI-8226 is 6.24 µM (inactive); in the assay with SR, 0.524 µM (active); in the assay on BT-549, 15.2 µM (inactive); in the assay on HT-29, 16.8 µM (inactive); in the assay on IGROV-1 it was 17.9 µM (inactive); in the assay with PC-3, 11.8 µM (inactive).
`C=CCn1c(-c2ccc(-c3cs/c(=N\N=O)n3CC=C)cc2)cs/c1=N\N=O`: the GI50 was > 100 µM (inactive) in the assay on SW-620; > 100 µM (inactive) in the assay on SK-MEL-2; > 100 µM (inactive) in the assay on A549; > 100 µM (inactive) in the assay on UO-31; 22.2 µM (inactive) in the assay with OVCAR-4; > 100 µM (inactive) in the assay on SK-MEL-28. The GI50 in the assay on K562 was > 100 µM (inactive); with MDA-MB-231 it was 23.4 µM (inactive); with SN12C, 86.9 µM (inactive); in the assay on SNB-19, > 100 µM (inactive); with HCT-116, 79.1 µM (inactive); in the assay on Malme-3M it was > 100 µM (inactive). In addition, the GI50 was > 100 µM (inactive) with HCC 2998; 91 µM (inactive) in the assay on SF-295; > 100 µM (inactive) in the assay with SR; > 100 µM (inactive) in the assay with BT-549; > 100 µM (inactive) with HT-29; > 100 µM (inactive) with IGROV-1. Moreover, the GI50 in the assay on PC-3 is > 100 µM (inactive).
